Laboratory results published in patent publication US20110077215A1, “DNA Methylation As A Target For Diagnosis And Treatment Of Chronic Lymphocytic Leukema (CLL)” (THE UNIVERSITY OF UTAH RESEARCH FOUNDATION, priority 2005, published 2011).
Entries after “also recorded” stand apart in the source; their conditions may differ. Marks after values point to notes of the source that are not given here.

Legend:
global DNA methylation [1] = assay: Global methylation analysis after continuous infusion Decitabine; assay type: in vivo, human; settings: patients treated with Decitabine
Experimental: All patients were treated with continuous infusion Decitabine given intravenously in an inpatient setting. […] The method for assessing DNA methylation was consistent and reproducible (Samlowski et al. Manuscript submitted to JCO).

global DNA methylation [2] = assay: Global DNA MI (HPLC) before and after low-dose 5-azacytidine; assay type: in vivo, human
patients with CLL = assay: Dose-escalation study of low-dose 5-azacytidine: toxicity; assay type: in vivo, human
Experimental: (§1) Patients with CLL not in immediate need for cytoreductive therapy are enrolled on a dose-escalation study of low-dose 5-azacytidine (Vidaza, provided by the Pharmion Corporation.) Patients must have a KPS greater than 70%, white blood cell count greater than 20,000/μL hemoglobin >8 g/dL, platelet count >50,000/μL, normal liver, and renal functions. The study was carried out in 2 stages using a modification of the design proposed by Storer. {Storer, 1989 #16} In the first stage, patients were enrolled as single patient cohorts until either at least a 20% DNA MI inhibition or a greater than grade II toxicity. This allowed us to get closer to the target biologically effective dose before enrolling three patient cohorts. The global DNA MI and the miRNA expression profile of 6 patients before and after 5-azacytidine in the patients in the first stage of the study protocol was determined. Patients received 10-70 mg/m^2/day on days 1-3 and days 8-10.

[3] = test system: miRNA expression in patients with CLL; assay: miRNA expression profile (Taqman real-time PCR) before and after DNA methylation inhibitor; assay type: in vivo, human; settings: for Changes in bcl-2, p53, mir-15, mir-16: after treatment; for miR-34a and miR-195 expression: patients with decreased lymphocytosis following drug treatment; for Expression of mir-17-3p, mir-21, mir-29a/b/c, mir-30e, mir-104, mir-126, mir-128a, mir-130a, mir-141, mir-142-3p, mir-148a, mir-151, mir-199a, mir-199a*, mir-301: real-time PCR, Early Access Human Panel; for microRNA expression after treatment: six patients on 5-azacytidine, one patient on 2-chloro-2-deoxyadenosine
Experimental: The DNA MI was measured in each patient before and after treatment with low dose cladribine.
as §1
Total RNA is extracted with Trizol, as previously described. {O'Donnell, 2005 #182} MiRNA expression was determined using the Applied Biosystems Taqman MicroRNA Assays Human Panel Early Access Kit. 10 ηg of RNA is used for each sample. cDNA is made using a looped RT primer provided by the kit. A 1 to 5 dilution of the cDNA is used for each sample and used for quantitative PCR on the ABI 7900HT Fast Real-Time PCR System. MiRNA-specific forward and reverse primers were provided in plates A and B. MiR-16 and let-7a served as positive controls while let-2 served as a negative control for human samples. Each miRNA were performed in quadriplicates. The miRNA expression was determined for CD5^+B-lymphocytes obtained from pediatric tonsils and from B-lymphocytes of 5 healthy controls.
Two different DNA methylation inhibitors were studied with respect to re-expression of microRNA: a DNA methyltransferase enzyme inhibitor, 5-azacytidine, and a methyl substrate inhibitor, 2-chloro-2-deoxyadenosine. […] Mir-17-3p and mir-21 have anti-apoptotic properties.

[4] = test system: patients with chronic lymphocytic leukemia; assay: Phase I dose-escalation of low-dose subcutaneous cladribine: clinical response and toxicity; assay type: in vivo, human
Experimental: Additional inclusion criteria included: KPS>70%, absolute neutrophil count >1500/μl, platelet count >100,000/μl, creatinine <2.0 mg/dl, normal liver function tests, no evidence of active infections on chest x-ray or urinalysis, and no concurrent chemotherapy or radiation therapy within 4 weeks of registration. Each patient signed an informed consent form approved by the University of Utah institutional review board, Clinical Cancer Investigation Committee, and Salt Lake City Veterans Administration Medical Center (SLC VAMC) Research and Development office.
The study accrued three patients from the VAMC and two patients from the Huntsman Cancer Institute at the University of Utah from January to May 2005. The patients were given three consecutive subcutaneous injections of cladribine (Leustatin) once every 28-32 days, starting at a dose of 0.05 mg per kg per day. The primary endpoint of the study was to find the dose of cladribine which caused a 20% decrease in global DNA methylation. Each patient served as their own control, and was dose-escalated every 28-32 days by 0.01 mg per kg per day if the primary endpoint was not met. Patients were given prophylactic doses of trimethoprim/sulfamethoxazole for the prevention of pneumocystis carinii. Patients allergic to trimethoprim/sulfamethoxazole were prescribed prophylactic doses of dapsone. No clinical endpoints were written into the study initially. […] A clinical response was defined by the NCI-sponsored working group for CLL. (See Cheson et al., BLOOD (1996) 87:4990-97). A patient was considered to have completed the study when the total white blood count was less than 10,000 cells/μl after two consecutive weekly blood counts. The entire study was conducted at the University of Utah General Clinical Research Center (GCRC). Leustatin was provided to the patients by Tibotec Therapeutics, a division of Johnson and Johnson.
Five patients with CLL were given subcutaneous injections of cladribine (Leustatin, provided by Tibotec Therapeutics) on three consecutive days at 28-32 day intervals, starting at a dose of 0.05 mg/kg/day, approximately ⅓ of the recommended therapeutic dose. {Juliusson, 1993 #10; Juliusson, 1996 #11} Five patients with a confirmed diagnosis of CLL (Table 3) participated in an Institutional Review Board-approved protocol between January and May 2005 after informed consent was obtained. […] Inclusion criteria included: KPS>70%, absolute neutrophil count >1500/μL, platelet count >100,000/μL, creatinine <2.0 mg/dL, normal liver function tests, no evidence of active infections, and no concurrent chemotherapy or radiation therapy within 4 weeks of registration.

[5] = test system: histone 3 (H3) methylation in CLL cells; assay: Histone methylation immunofluorescence of CLL cells after low-dose cladribine; assay type: in vivo, human
Experimental: The DNA and the mononuclear cells from the buffy coat were stored from the majority of patient samples. DNA was used for global DNA methylation studies and the mononuclear cells from the buffy coat were used to measure changes in H3 methylation by immunofluorescence before and after treatment.
3×10^4 CLL cells were mounted onto a slide by cytospin at 800 rpm for 3 minutes. They were then fixed in 95% ethanol/5% acetic acid for 10 minutes, followed by incubation in 0.25 M sodium butyrate for 24 hours at room temperature. The slides were stained by the Ventana automated immunostainer at 40° C. The slides were first stained with the primary antibody (1:50) for 32 minutes, followed by staining with the secondary antibody (sheep or rabbit IgG-FITC) (1:200) for 32 minutes. Slides were counterstained with DAPI (1:100) for 1 minute and hematoxylin (Ventana Medical Systems) for 4 minutes. Fluorescent detection was performed with the IView DAB detection kit (Ventana Medical Systems). Intensity of fluorescence was quantitated by a wide field fluorescent microscope and quantified by the Openlab modular imaging software. Signal to noise was optimized by the software.
A histone methylation assay that uses immunofluorescence to assess for histone methylation patterns after treatment with low-doses of cladribine was developed. […] These states are associated with transcription silencing. (See Jaskelioff et al., Nat. Cell. Biol. (2003) 5:395-99). In FIG. 4, an average of 100 cells was quantitated in the fluorescence intensity at each time point. The asterisk corresponds to days of treatment with cladribine. The error bars at each time point refer to the range of antibody staining in all cells. […] Multiparametric flow cytometry may be utilized to analyze further which subset of CLL cells respond to low doses of drugs.

HT-29 cells = assay: DNA microarray analysis of gene re-expression after Cladribine; assay type: cell-based; settings: HT-29 colon cancer cell line
Experimental: Lymphocytes are inclubated with 0-3 μM Cladribine.
Total RNA is isolated with RNeasy mini kits (Qiagen) from samples treated with Cladribine or vehicle. Approximately 1 μg may be amplified using Message Amp kits (Ambion). In replicate experiments, DNA from the vehicle or treated samples may be variably labeled with Cy-3 and Cy-5 dye and two microarray experiments may be performed for each dye-orientation. The utilized microarray slides consist of 9600 genes from the Research Genetics 40k sequence-verified human clone set. Each sample is deposited in duplicate, with a Lucidea (Amersham) robotic spotter. After hybridization, the microarray slides are scanned with an Axon scanner, and data quantified using Imagene and GeneSight software. The local background is subtracted. Data points with no signal, high background, or spot asymmetry are eliminated. Genes with low expression and low signal intensity are adjusted to a minimal raw value of 5 to avoid unwarranted mathematical distortions due division by decimals <<1. After calculating the ratio of the Cy5/Cy3 fluorescence signal intensity for each gene, data is normalized relative to the mean intensity from all genes. […] Data is analyzed with Spotfire software for statistical and hierarchical cluster analysis using an unweighted pair-group method with arithmetic mean with a Euclidean distance metric.

global DNA methylation [6] = assay: Global DNA methylation (HPLC of digested genomic DNA) before and after low-dose cladribine; assay type: in vivo, human
[7] = low-dose cladribine s.c., 5 CLL patients
[8] = low-dose cladribine, 5 patients
[9] = CLL cells after low dose cladribine

Nc1ncn([C@H]2C[C@H](O)[C@@H](CO)O2)c(=O)n1 [Decitabine, 5-aza-2-deoxycytidine]
Decrease in global DNA methylation level achievable (global DNA methylation [1]): ≥ 20%

Nc1ncn([C@@H]2O[C@H](CO)[C@@H](O)[C@H]2O)c(=O)n1 [5-azacytidine]
Global decrease of DNA methylation after treatment (global DNA methylation [2]; 6 out of 7 patients, pooled with the 2-chloro-2-deoxyadenosine patient): 8% | Decrease in global DNA MI (global DNA methylation [2]; four out of the 6 patients, low-dose 5-azacytidine): ~10% | Change in global DNA MI (global DNA methylation [2]; patients 2 and 4, low-dose 5-azacytidine): No change | Toxicity (patients with CLL; 5th patient, 60 mg/m^2/day): grade II thrombocytopenia and anemia | Toxicity (patients with CLL; the other patients, 10-70 mg/m^2/day): No other toxicities were observed | Changes in bcl-2, p53, mir-15, mir-16 [3]: No changes | miR-34a and miR-195 expression [3]: upregulated | Expression of mir-17-3p, mir-21, mir-29a/b/c, mir-30e, mir-104, mir-126, mir-128a, mir-130a, mir-141, mir-142-3p, mir-148a, mir-151, mir-199a, mir-199a*, mir-301 [3]: consistent microRNA upregulation | microRNA expression after treatment [3]: Increased microRNA expression

Nc1nc(Cl)nc2c1ncn2[C@H]1C[C@H](O)[C@@H](CO)O1 [cladribine, 2-chlorodeoxyadenosine]
Hemoglobin change over the course of the study ([4]; Patient 1): did not exhibit a decrease in hemoglobin | Toxicities overall ([4]; low-dose cladribine 0.05-0.09 mg per kg per day): without toxicities | Clinical response (NCI-sponsored working group) ([4]; low-dose cladribine 0.05-0.09 mg per kg per day, 3 days every 28 days): induce a clinical response in some patients; also recorded: partial response; also recorded: Three out of the five | CR (number of patients) [4, 7]: 0 | PD (number of patients) [4, 7]: 1 | PR duration [4, 7]: 5 months | Hematologic toxicities Grade III/IV (number of patients) [4, 8]: Grade III/IV (0) | Non-hematologic toxicities Grade I/II (number of patients) [4, 8]: Grade I/II (2)* | Non-hematologic toxicities Grade III/IV (number of patients) [4, 8]: Grade III/IV (0) | Non-hematologic toxicities observed (adverse events) ([4]; low-dose cladribine, events in patient 4): Two grade II non-hematologic toxicities; also recorded: grade II lymphadenitis; also recorded: second grade II infection, a community-acquired pneumonia | Decrease in lymphocyte count by 50% (time) ([4]; mean of the 5 patients on trial, range 8-67 days): 48 days (8-67 days)** | Hemoglobin ([4]; mean of the 5 patients on trial, range 12.1-16 g/dL): 14.6 g/dL (12.1-16 g/dL)** | Platelet count ([4]; mean of the 5 patients on trial, range 133-438k/μL): 224k/μL (133-438k/μL)** | Reduction in circulating leukemia cells ([4]; patient 1, dose escalation): did not demonstrate a reduction in circulating leukemia cells until the third dose escalation of 0.07 mg per kg per day | Outcome of patient 3 (previously treated) ([4]; patient 3, higher baseline global DNA methylation): progressive disease; also recorded: progression with a gradually increasing white blood count | White blood cell count change ([4]; patient 5, first dose 0.05 mg per kg per day): dramatic reduction in white blood cell count | Reduction in white blood cell count ([4]; patients 1, 2, 4 and 5 after low dose cladribine): ≥ 50% | H3 dimethylated lysine 9 immunofluorescence [5, 9]: Little change | H3 monomethylated lysine 4 immunofluorescence [5, 9]: decreased to levels akin to signal intensity obtained from total histone 3; also recorded: decrease transiently | H3 monomethylated lysine 9 immunofluorescence [5, 9]: increase and rise | H3 phospho-serine 10 immunofluorescence [5, 9]: decrease and rise | H3 trimethylated lysine 9 immunofluorescence [5, 9]: increase in trimethylated lysine 9 approximately 1 week later and increase and rise | Total histone 3 immunofluorescence ([5]; patient 4, 0.05 mg per kg per day cladribine): minimal changes | Re-expression of silenced genes (DNA microarray) (HT-29 cells): re-expression of silenced genes in HT-29 cells | Global decrease of DNA methylation after treatment (global DNA methylation [6]; 6 out of 7 patients, pooled with the six 5-azacytidine patients): 8% | Effect on global DNA methylation (global DNA methylation [6]; low-dose cladribine): modest response; also recorded: not an effective DNA methylation inhibitor; also recorded: minimal inhibition in global DNA methylation | Changes in bcl-2, p53, mir-15, mir-16 [3]: No changes | miR-34a and miR-195 expression [3]: upregulated | Expression of mir-17-3p, mir-21, mir-29a/b/c, mir-30e, mir-104, mir-126, mir-128a, mir-130a, mir-141, mir-142-3p, mir-148a, mir-151, mir-199a, mir-199a*, mir-301 [3]: consistent microRNA upregulation | microRNA expression after treatment [3]: Increased microRNA expression
